Results reported in patent US7662851B2, “Use of specific cyklolignans” (Axelar AB, priority 2001, dated 2010).
Where two headings read alike, the source gives them in different places.

Tests used:
IGF-1R [1] = molecular target: T1, IGF-1R (Homo sapiens, UniProt P08069); test: IGF-1R tyrosine autophosphorylation, sandwich ELISA, cell-free; type: biochemical; set-up: expressed in transfected cells; host or cells: P6 cell line (murine fibroblasts overexpressing human IGF-1R); receptor captured on plates with an antibody to the beta subunit
T1 sequence (P08069 31-1367): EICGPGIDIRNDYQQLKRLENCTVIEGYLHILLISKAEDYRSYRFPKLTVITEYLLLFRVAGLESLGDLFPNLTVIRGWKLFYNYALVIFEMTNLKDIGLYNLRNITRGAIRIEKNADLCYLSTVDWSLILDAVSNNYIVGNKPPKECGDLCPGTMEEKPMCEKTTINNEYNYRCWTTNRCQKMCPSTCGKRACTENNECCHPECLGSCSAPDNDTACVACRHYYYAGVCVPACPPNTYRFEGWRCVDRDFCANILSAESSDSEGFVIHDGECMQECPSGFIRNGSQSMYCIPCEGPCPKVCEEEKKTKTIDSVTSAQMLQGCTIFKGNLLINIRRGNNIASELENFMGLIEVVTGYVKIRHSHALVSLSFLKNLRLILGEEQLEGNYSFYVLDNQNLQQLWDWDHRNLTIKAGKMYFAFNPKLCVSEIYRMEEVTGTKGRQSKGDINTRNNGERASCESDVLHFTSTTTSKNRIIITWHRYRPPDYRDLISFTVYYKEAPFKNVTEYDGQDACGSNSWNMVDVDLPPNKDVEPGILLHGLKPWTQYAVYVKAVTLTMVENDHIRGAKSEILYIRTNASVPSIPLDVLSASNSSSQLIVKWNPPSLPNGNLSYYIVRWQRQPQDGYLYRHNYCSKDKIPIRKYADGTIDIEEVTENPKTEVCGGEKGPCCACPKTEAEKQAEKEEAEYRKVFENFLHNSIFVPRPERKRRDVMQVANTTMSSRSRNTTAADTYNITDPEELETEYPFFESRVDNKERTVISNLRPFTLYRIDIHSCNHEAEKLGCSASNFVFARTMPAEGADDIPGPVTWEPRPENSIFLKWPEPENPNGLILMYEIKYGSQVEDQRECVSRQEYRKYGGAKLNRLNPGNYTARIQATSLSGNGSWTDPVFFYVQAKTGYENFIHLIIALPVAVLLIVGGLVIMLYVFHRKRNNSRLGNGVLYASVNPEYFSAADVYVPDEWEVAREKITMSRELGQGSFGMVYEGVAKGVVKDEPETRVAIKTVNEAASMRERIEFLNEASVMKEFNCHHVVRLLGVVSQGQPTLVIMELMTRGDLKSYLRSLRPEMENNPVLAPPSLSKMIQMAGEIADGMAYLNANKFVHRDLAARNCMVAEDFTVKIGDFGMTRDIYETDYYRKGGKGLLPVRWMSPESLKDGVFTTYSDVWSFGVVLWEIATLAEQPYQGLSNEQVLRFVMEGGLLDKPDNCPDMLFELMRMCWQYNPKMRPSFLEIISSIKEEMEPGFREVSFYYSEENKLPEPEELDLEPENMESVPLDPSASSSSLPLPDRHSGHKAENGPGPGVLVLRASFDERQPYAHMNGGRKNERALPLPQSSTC
Procedure: IGF-1R tyrosine autophosphorylation was analysed by a sandwich ELISA assay. Briefly, 96-well plates (Immunolon, Nunc) were coated overnight at 4° C. with 1 μg/well of the monoclonal antibody Ab-5 (LabVision) to the IGF-1R beta subunit. The plates were blocked with 1% BSA in PBS Tween for 1 h, then 80 µg/well of total protein lysate from the P6 cell line was added. As a negative control was used total protein lysate from the R-cell line. The investigated compounds were added in tyrosine kinase buffer without ATP at room temperature for 30 min, prior to kinase activation with ATP. Kinase assay was performed using the Sigma kit. After spectrophotometry the IC50 values of inhibitors were determined using the Regression function of Statistica program.
To investigate whether PPP interferes with the tyrosine autophosphorylation at the ATP level or at the substrate level (i.e., the tyrosine kinase domain of the IGF-1R […]), various concentrations of ATP (19-300 μM) were added to the reaction buffer during the assay.

IGF-1R [2] = molecular target: T1, IGF-1R; test: IGF-1R phosphorylation in various malignant cell types (EC50); type: cell-based; set-up: endogenous in cells; host or cells: 12 malignant cell lines (e.g. SK-MEL-2, SK-MEL-5, SK-MEL-28); conditions: 1 h
Procedure: Cells were cultured to subconfluency in 6-cm plates, and then fresh medium containing 10% FBS and the desired compounds were added for 1 h. The cells were then lyzed and subjected to immunoprecipitation using specific antibodies. Immunoprecipitates were resolved by sodium dodecyl sulphate polyacrylamide gel electrophoresis (SDS-PAGE) and transferred to nitro-cellulose membranes and incubated with anti-phosphotyrosine antibody. Antibodies to actin (in cell extract) or IGF-1R beta subunit were used as loading controls. After detection the films were scanned for quantification.
12 cell lines of different origins were seeded in 6-cm dishes, at a concentration of 10,000 cells/cm^2 in Minimal Essential Medium supplemented with fetal calf serum (FCS). When the cells had reached a concentration of 65,000 cells/cm^2, they were treated with 0, 0.01, 0.025, 0.05, 0.1 or 1.0 uM doses of podophyllotoxin and picropodophyllin for 1 h. The cells were then harvested for assay and quantification of IGF-1R phosphorylation as described above. The EC50 value, the Efficient Concentration 50%, i.e. the concentration needed to reduce the phosphorylation with 50%, for each inhibitor and cell line, is then calculated. The results are based on two different experiments.

[3] = system: SK-MEL-5 melanoma cell line; test: Cell viability (XTT), SK-MEL-5; type: cell-based
Procedure: Cell proliferation kit II (Roche Inc.) is based on colorimetric change of the yellow tetrazolium salt XTT in orange formazan dye by the respiratory chain of viable cells (Roehm, N W, et al., J Immunol Methods 142:257-265, 1991). Cells seeded at a concentration of 5000/well in 100 μl medium in a 96-well plate were treated with different drugs in the given concentration. After 24 or 48 h the cells were incubated, according to the manufacturer's protocol, with XTT labelling mixture. After 4 h the formazan dye is quantified using a scanning multiwell spectrophotometer with a 495-nm filter. The absorbance is directly correlated with the number of viable cells. The standard absorbance curve was drawn by means of untreated cells seeded at a concentration of from 1000 to 10 000 cells/well with an increasing rate of 1000 cells/well. All standards and experiments were performed in triplicates.
12 different types of cell lines were seeded in 96-well plates (medium volume in a well was 100 μl), at a concentration of 10,000 cells/cm^2 in Minimal Essential Medium supplemented with fetal calf serum. When the cells had reached a concentration of 65,000 cells/cm^2, they were treated with different doses of podophyllotoxin and picropodophyllin for 48 h. Cell viability was then assayed (see above). […]

[4] = Local toxicity, subcutaneous osmotic pumps in nude mice; type: in vivo; set-up: key to Local toxicity: effects on skin and subcutaneous tissue: 0: no tissue reaction; *: light tissue reaction with hyperemia and mild inflammation; **: moderate tissue reaction with strong inflammation; ***: strong tissue reaction with necrosis and bleedings; conditions: 7 days; for Local tissue reactions: subcutaneous osmotic pump loaded with 0.25 mg
Procedure: Control mice were treated with the solvent. 3-6 animals were treated in each group.
The first set of experiments was carried out to investigate possible local and systemic toxic effects of podophyllotoxin, deoxypodophyllotoxin and picropodophyllin on nude mice. In the first experiment osmotic pumps loaded with either drug-free solvent, podophyllotoxin (0.25 mg), deoxypodophyllotoxin (0.25 mg) or picropodophyllin (0.25 mg) were implanted subcutaneously in the flank region. The drugs are delivered subcutaneously with a constant flow of 0.6 μl/h over 7 days. The volume of the pumps was 100 μl. After 7 days the mice were killed and the skin and subcutaneous tissue adjacent to the outlet of the pumps were analyzed and scored for tissue reactions by an experienced pathologist. There were 3 mice in each group.

[5] = P6 fibroblasts with overexpressed IGF-1R

SMILES	IC50 (IGF-1R [1]; cell-free, ATP 19-300 μM in reaction buffer, read-out: IC50, autophosphorylation of IGF-1R at various ATP concentrations) [nM]	IC50 (IGF-1R [1]; cell-free, FIG. 4, read-out: IC50, autophosphorylation of IGF-1R) [nM]	EC50 (IGF-1R [2]; FM55 melanoma) [nM]	EC50 (IGF-1R [2]; MCF-7 breast cancer) [nM]	EC50 (IGF-1R [2]; [5]) [nM]	EC50 (IGF-1R [2]; PC-3 prostate cancer) [nM]	EC50 (IGF-1R [2]; RD-ES Ewing's sarcoma) [nM]	EC50 (IGF-1R [2]; SK-MEL-5 melanoma) [nM]	EC50 (IGF-1R [2]; SK-MEL-28 melanoma) [nM]	EC50 ([3]; Homo sapiens, SK-MEL-5, 48 h; read-out: EC50 for cell viability) [nM]	Local tissue reactions [4]	Local toxicity: effects on skin and subcutaneous tissue ([4]; subcutaneous osmotic pump, 7 mg/kg/d)	IC50 (IGF-1R [1]; in vitro, stated in description, read-out: IC50 for IGF-1R-inhibition when tested in vitro) [nM]	EC50 (IGF-1R [2]; BE melanoma) [nM]	EC50 (IGF-1R [2]; DWB melanoma) [nM]	EC50 (IGF-1R [2]; SK-MEL-2 melanoma) [nM]	EC50 ([3]; Homo sapiens, SK-MEL-5, 48 h, read-out: EC50 for cell viability) [nM]
COc1cc([C@@H]2c3cc4c(cc3[C@H](O)[C@H]3COC(=O)[C@@H]23)OCO4)cc(OC)c1OC [Picropodophyllin, picropodophyllin]	1 to 2	~1	60	40	30	90	50	40	40	50	no visible reactions	0	–	–	–	–	–
COc1cc([C@@H]2c3cc4c(cc3[C@H](O)[C@H]3COC(=O)[C@H]23)OCO4)cc(OC)c1OC [Podophyllotoxin, podophyllotoxin]	–	–	40	50	20	60	30	30	30	–	severe tissue reactions with necrosis, bleeding and inflammation	–	1	40	30	40	20
